In brackets after ≈: the same amount, converted by molar mass. Like-named read-outs stand apart in the source and are kept apart here.
How the values were obtained:
H. azteca and G. pulex = settings: cited from earlier work
D. magna [1] = settings: in vivo
[2] = Description: The pH of the test medium in this study was measured to be 8.50 ± 0.10. The neutral fraction (fn) of the target compounds, their pH-adjusted octanol–water coefficients (log Dow), and their pH-adjusted lipid–water coefficients (log Dlipw) were calculated for this pH condition (Table 1). The calculation and related details are given in the Supporting Information (SI) in Text S1. […]
Text 1. Calculation of physicochemical property parameters
The pH of the artificial freshwater environment for D. magna was measured as […]. The fraction of neutral species (f n) for the test compounds was calculated as the following equation:1–3 […]
where i is 1 for acids and -1 for bases. The pH-adjusted octanol-water coefficient log

D. magna [3] = settings: for BCF in vivo (dynamic BCF): ku/kd; for ku (uptake rate constant): 24 h uptake phase; for BCF in vivo ratio / half-life in vivo ratio: methylated derivative over demethylated counterpart
in vivo [4] = settings: Daphnia magna
Description: Preliminary tests were conducted for each target compound at widely spaced concentrations to identify the concentration range for deriving an accurate dose–response curve. The stock solutions of individual test compounds were prepared in methanol and diluted with 10 mL of aerated AFW to different concentrations in 20 mL glass vials. The methanol volume was set to 100 μL in each vial as the solvent carrier, and a control group containing 100 μL of methanol without the target compound was used as the carrier solvent control. Each test included at least five concentration levels, and the concentrations of test compounds in the medium were experimentally measured (SI, Table S1). Each treatment included four replicates. […] The obtained dose–response data were fitted to the Boltzmann equation:[24] [drawing 1] 1 where C is the measured concentration of the test compound.

in vivo [5] = settings: whole D. magna (wet weight), 1 mg L^–1, pH 8.5
[6] = cited from earlier work; for pKa: measured value, ref CompTox Chemicals Dashboard; for logKow: measured values, ref PubChem
D. magna [7] = assay: Interconversion (methylation/demethylation) in D. magna
[8] = pH 8.50, calculated, crosschecked with ChemAxon
[9] = after 2 h of exposure, 1 mg L^–1 nominal
[10] = end of uptake phase, 24 h, 1 mg L^–1 nominal

Row | SMILES | fn (neutral fraction) ([2]; pH 8.50, calculated) | logDlipw ([2]; pH 8.50, calculated) | logDow [2, 8] | BCF in vivo (dynamic BCF) (D. magna [3]; D. magna, 1 mg L^–1 nominal) | LC50 at 48 h (in vivo [4]) [µg/mL] | half-life (in vivo [5]) [h] | ku (uptake rate constant) (D. magna [3]; D. magna) [mL/min/kg] | BCF in vivo ratio (D. magna [3]) | half-life in vivo ratio (D. magna [3]) | logKow [6] | demethylation in D. magna (demethylated product in exposed D. magna) (D. magna [1]) | also measured
1 | COC(=O)Cc1ccccc1Nc1c(Cl)cccc1Cl [methylated diclofenac] | – | – | – | – | – | – | – | – | – | – | – | bioaccumulation relative to diclofenac (H. azteca and G. pulex): 25–110 fold
2 | C[C@H](C(=O)O)c1ccc2cc(O)ccc2c1 [DM-naproxen] | 0 | −0.67 | -1.32 | 0 L kg^–1, w.w. | 67.9 ± 6 (≈ 314 µM) | – | – | – | – | – | – | formation rate of demethylated TP (D. magna [1]; Daphnia magna, pH 8.5): 1.5 ± 0.3 nmol g^–1 h^–1; logDlipw ([2]; pH 8.50, calculated, listed as DM-Naproxen): -0.67; level in D. magna (D. magna [3]; bioaccumulation experiment, 1 mg L^–1 nominal): below the LOD
3 | CC(=O)Nc1ccc(O)cc1 [acetaminophen, reference compound] | 0.9 | – | – | 0.3 ± 0.0 L kg^–1, w.w. | – | 1 | 3.3 ± 0 | 1.0 | 1.0 | 0.46 | – | logDlipw ([2]; pH 8.5): 0.89; logDow ([2]; pH 8.5): 0.41; rise of BCF after methylation (D. magna [3]; D. magna, in vivo): approximately 33 fold; concentration in D. magna (D. magna [3]; [9]): 308.7 ± 42.6 ng g^–1 (w.w.); pKa [6]: 9.38; LC50 at 48 h (in vivo [4]; other: waterborne exposure in the test medium): 21.2 ± 2.4 µg/mL (≈ 140 µM)
4 | O=C(O)c1ccc(O)cc1 [DM-methylparaben] | 0 | – | – | 0.9 ± 0.5 L kg^–1, w.w. | 226 ± 17.3 (≈ 1630 µM) | 2.2 | 5 ± 0 | 1.0 | 1.0 | 1.58 | – | molar equivalent of demethylated TP relative to methylated parent in D. magna (D. magna [1]; Daphnia magna, 12 h, pH 8.5): about 2.0%; molar equivalent of demethylated TP in D. magna (D. magna [1]; Daphnia magna, 24 h, pH 8.5): 54.8%; logDow ([2]; pH 8.5): -2.38; concentration in D. magna (D. magna [3]; [10]): 682.7 ± 91.5 ng g^–1 (w.w.); pKa [6]: 4.54
5 | COc1ccc2cc([C@H](C)C(=O)O)ccc2c1 [naproxen, reference compound] | – | – | – | 1.5 ± 0.6 L kg^–1, w.w. | – | – | – | – | – | – | evident | –
6 | COC(=O)c1ccc(O)cc1 [methylparaben] | 0.41 | 1.93 | 1.57 | 2.8 ± 0.2 L kg^–1, w.w. | 34.4 ± 4.3 (≈ 226 µM) | 2.7 | 12 ± 1.7 | – | – | – | evident | concentration in D. magna (D. magna [3]; [10]): 2216.3 ± 85.7 ng g^–1 (w.w.)
7 | CN1C(=O)CN=C(c2ccccc2)c2cc(Cl)ccc21 [diazepam, reference compound] | 1 | – | – | 9.0 ± 0.4 L kg^–1, w.w. | – | – | – | – | – | 2.82 | – | demethylation in D. magna (demethylated product in exposed D. magna) (D. magna [7]; exposure to individual methylated compound): evident
8 | COc1ccc(NC(C)=O)cc1 [M-acetaminophen] | 1 | 1.45 | 1.03 | 10.0 ± 0.0 L kg^–1, w.w. | 32.1 ± 5.7 (≈ 194 µM) | 0.4 | 288 ± 6.7 | 33.3 | 0.4 | 1.03 | not detected | fold difference of concentration in D. magna vs acetaminophen (D. magna [3]; after 2 h of exposure): 28 fold; concentration in D. magna (D. magna [3]; [9]): 8730.7 ± 2900.9 ng g^–1 (w.w.); BCF in vivo ratio (D. magna [3]; listed as methylated acetaminophen): about 33
9 | O=C1CN=C(c2ccccc2)c2cc(Cl)ccc2N1 [DM-diazepam, reference compound] | 1 | – | – | 9.8 ± 0.3 L kg^–1, w.w. | – | – | 20 ± 1.7 | – | – | – | – | molar equivalent of demethylated TP in D. magna (D. magna [7]; at the end of depuration): 33.5%

Reference: article PMC10569044, “Methylation and Demethylation of Emerging Contaminants Changed Bioaccumulation and Acute Toxicity in Daphnia magna” (Environmental Science & Technology, 2023)
